Usually AUC(0-t) stands for exposure summed from dosing to a finite time, without extrapolation to infinity. By Cmax is commonly meant the maximum level reached in the sampled fluid or tissue. As a reminder, the Tmax is the time at which the peak concentration occurs. In general, half-life refers to how long it takes for the measured level to halve. In general, bioavailability refers to the share of a dose that reaches the circulation, judged against a reference dose that is usually intravenous. By Kb is commonly meant the equilibrium dissociation constant of an antagonist, usually derived from a functional assay.

This note sets out measurements from US8735423B2, “Bicyclic compounds as α4β2 nicotinic acetylcholine receptor ligands” (priority 2009, dated 2014).

Structures are written as SMILES.

Data set [1] is described as follows: Rodent Pharmacokinetic Study. The following applies: Wistar, in vivo, Wister rat male. As to the method:
Rodent Pharmacokinetic Study
Male wistar rats (230-280 grams) obtained from NIN (National Institute of Nutrition, Hyderabad, India) were used as an experimental animal. Three to five animals were housed in each cage. Animals were kept fasted over night and maintained on a 12 hours light/dark cycle. […]
At each time point blood was collected by jugular vein. Plasma was stored frozen at −20° C. until analysis. The concentrations of the NCE compound in plasma were determined using LC-MS/MS method. Schedule time points: Pre dose 0.25, 0.5, 1, 1.5, 2, 3, 4, 6, 8, 10, 12 and 24 hours after dosing (n=3). The NCE compounds were quantified in plasma by validated LC-MS/MS method using solid phase extraction technique. NCE compounds were quantified in the calibration range of 1-2000 ng/mL in plasma. Study samples were analyzed using calibration samples in the batch and quality control samples spread across the batch. Pharmacokinetic parameters Cmax, Tmax, AUCs, T112 and Bioavailability were calculated by non-compartmental model using software WinNonlin version 5.0.1.

Data set [2] has as its system Male Wister rats. In words: Object Recognition Task Model. Type of data set: in vivo. The following applies: rat; for Exploration time mean ± S.E.M, Familiar object / Exploration time mean ± S.E.M, Novel object: choice trial T2. On the procedure: Object Recognition Task Model
The cognition-enhancing properties of compounds of this invention were estimated using a model of animal cognition: the object recognition task model.
Male Wister rats (230-280 grams) obtained from N. I. N. (National Institute of Nutrition, Hyderabad, India) was used as experimental animals. Four animals were housed in each cage. Animals were kept on 20% food deprivation before one day and given water ad libitum throughout the experiment and maintained on a 12 hours light/dark cycle. Also the rats were habituated to individual arenas for 1 hour in the absence of any objects.
One group of 12 rats received vehicle (1 mL/Kg) orally and another set of animals received compound of the formula (I) either orally or i.p., before one hour of the familiar (T1) and choice trial (T2).
The experiment was carried out in a 50×50×50 cm open field made up of acrylic. In the familiarization phase, (T1), the rats were placed individually in the open field for 3 minutes, in which two identical objects (plastic bottles, 12.5 cm height×5.5 cm diameter) covered in yellow masking tape alone (a1 and a2) were positioned in two adjacent corners, 10 cm. from the walls. After 24 hours of the (T1) trial for long-term memory test, the same rats were placed in the same arena as they were placed in T1 trial. Choice phase (T2) rats were allowed to explore the open field for 3 minutes in presence of one familiar object (a3) and one novel object (b) (Amber color glass bottle, 12 cm high and 5 cm in diameter). Familiar objects presented similar textures, colors and sizes. During the T1 and T2 trial, explorations of each object (defined as sniffing, licking, chewing or having moving vibrissae whilst directing the nose towards the object at a distance of less than 1 cm) were recorded separately by stopwatch. Sitting on an object was not regarded as exploratory activity, however, it was rarely observed.
T1 is the total time spent exploring the familiar objects (a1+a2).
T2 is the total time spent exploring the familiar object and novel object (a3+b).
The object recognition test was performed as described by Ennaceur, A., Delacour, J., 1988, A new one-trial test for neurobiological studies of memory in rats—Behavioural data, Behay. Brain Res., 31, 47-59.
Some representative compounds have shown positive effects indicating the increased novel object recognition viz; increased exploration time with novel object and higher discrimination index.

Data set [3] addresses T1, recombinant human α4β2 nicotinic acetylcholine receptor (Homo sapiens, UniProt P17787+P43681).
T1 construct: expressed in transfected cells
In words: Determination of IC50 and Kb values, aequorin luminescence assay in CHO cells. Format: cell-based. The following applies: antagonist mode, fixed concentration of agonist epibatidine, CHO cells, luminescence; read-out: Kb. As to the method: Determination of IC50 and Kb Values for Nicotinic Acetylcholine α4β2 Receptor Ligands
A stable CHO cell line expressing recombinant human α4β2 nicotinic acetylcholine receptor transiently expressing aequorin protein was used for cell-based assay. The assay offers a non-radioactive based approach to determine binding of a compound to ligand gated ion channels. In this specific assay, the level of intracellular calcium which is modulated by activation or inhibition of the channel is measured. Both the channel and aequorin genes are expressed at high level under the control of powerful CMV promotor.
The above cells were grown in 96 well clear bottom white plates in Hams F12 medium containing 10% fetal bovine serum (FBS). Prior to the addition of compounds and/or agonist, cells were serum starved for six hours. Coelentarazine (a prosthetic group for aequorin protein) was added in the medium containing 0.1% dialyzed serum and incubated overnight at 27° C. Cells were washed with assay buffer and increasing concentration of the test compound or standard were added to the plate for antagonist mode. A fixed concentration of the agonist (eipbatidine) was injected into the plate and luminescence was measured for 10 seconds. For evaluation of the compound in agonist mode, increasing concentration of the standard or test compound was injected and the luminescence was measured. Luminescence units were plotted against the compound concentrations using Graphpad software. IC50 values of the compounds were defined as the concentration required in reducing the luminescent units by 50%. The Kb values were calculated by feeding the concentration of the agonist used in the assay and its EC50 value in the same software.
Literature References: Karadsheh M. S., Shah M. S., Tang X., Macdonald R. L. and Stitzel J. A. Functional characterization of mouse α4β2 nicotinic acetylcholine receptors stably expressed in HEK293T cells. J. Neurochem. 2004, 91, 1138-1150.

Data set [4] concerns Male Wister rats. In words: Reversal of Formalin Induced Nociception. The following applies: rat, p.o., formalin 5% v/v subplantar. Type of data set: in vivo. As to the method: Reversal of Formalin Induced Nociception
The anti-nociceptive properties of compounds of this invention were evaluated using a model of pain: the Formalin Induced Nociception model. Male Wister rats (230-280 grams) obtained from N. I. N. (National Institute of Nutrition, Hyderabad, India) was used as experimental animals.
Rats were habituated for 20 minutes in the arena before the experiment was started. Duration of licks, bites and flinches were noted from 0-10 minutes and 20-35 minutes after administration of formalin, subplantar into the right hind paw at concentrations of 5% v/v. 50 μL of water for injection was injected into the right hind paw of the rats of the sham group. Compounds of this invention were administered orally prior to formalin administration.

T1 sequence (P43681 29-627): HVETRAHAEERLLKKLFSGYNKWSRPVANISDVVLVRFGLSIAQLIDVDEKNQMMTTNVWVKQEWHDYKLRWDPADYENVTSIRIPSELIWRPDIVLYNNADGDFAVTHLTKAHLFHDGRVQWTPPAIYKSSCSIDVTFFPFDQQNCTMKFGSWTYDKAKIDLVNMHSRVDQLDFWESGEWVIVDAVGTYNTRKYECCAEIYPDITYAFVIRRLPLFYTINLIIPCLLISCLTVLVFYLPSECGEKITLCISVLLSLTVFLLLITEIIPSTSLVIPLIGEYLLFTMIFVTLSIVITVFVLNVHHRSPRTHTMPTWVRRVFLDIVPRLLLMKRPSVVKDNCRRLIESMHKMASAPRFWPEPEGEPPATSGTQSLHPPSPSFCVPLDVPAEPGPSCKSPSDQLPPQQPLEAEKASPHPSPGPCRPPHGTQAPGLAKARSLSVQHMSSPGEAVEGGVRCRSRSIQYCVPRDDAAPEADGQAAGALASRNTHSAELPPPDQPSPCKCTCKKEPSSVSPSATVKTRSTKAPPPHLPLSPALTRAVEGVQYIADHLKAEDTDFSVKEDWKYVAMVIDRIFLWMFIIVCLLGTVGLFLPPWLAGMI
T1 sequence (P17787 26-502): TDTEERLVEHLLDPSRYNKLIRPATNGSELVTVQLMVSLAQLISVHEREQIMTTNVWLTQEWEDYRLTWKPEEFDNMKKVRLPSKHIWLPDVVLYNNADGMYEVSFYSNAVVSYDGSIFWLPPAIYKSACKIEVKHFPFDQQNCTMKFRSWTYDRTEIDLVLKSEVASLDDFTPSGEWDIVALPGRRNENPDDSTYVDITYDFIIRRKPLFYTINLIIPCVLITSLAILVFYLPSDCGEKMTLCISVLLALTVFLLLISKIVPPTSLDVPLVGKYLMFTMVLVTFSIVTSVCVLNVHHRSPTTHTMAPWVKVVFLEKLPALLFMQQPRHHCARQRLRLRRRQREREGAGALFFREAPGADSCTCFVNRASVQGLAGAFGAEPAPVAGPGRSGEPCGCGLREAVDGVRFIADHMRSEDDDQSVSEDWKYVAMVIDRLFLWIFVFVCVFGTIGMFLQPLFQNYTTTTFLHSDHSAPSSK

Take `Cl.c1cncc(OCC2CC3CC3N2)c1` (stereo not shown) [Example 1, 3-(Pyridin-3-yloxymethyl)-2-azabicyclo[3.1.0]hexane hydrochloride]: in data set [1] (iv, I.V, 5 mg/kg), the AUC(0-t) was determined as 4050 ± 679 ng·h/mL, the highest level (Cmax) was 3180 ± 38 ng/mL, the Tmax is 4.8 min and the half-life is 116 ± 37.2 min. Moreover, the bioavailability in data set [1] (po, P.O 15 mg/kg vs I.V 5 mg/kg) was 92 ± 16%. In data set [1] (po, P.O, 15 mg/kg), the area under the curve AUC(0-t) was found to be 10900 ± 646 ng·h/mL, the Cmax worked out at 7610 ± 1660 ng/mL, the Tmax is 15 min and the half-life was 251 ± 91.8 min. Besides, in the data set with Male Wister rats [2] (0.1 mg/kg p.o.), the Inference result was “Active”; the “Exploration time mean ± S.E.M, Familiar object” value stood at 7.75 ± 0.84 s; the “Exploration time mean ± S.E.M, Novel object” value came out at 12.65 ± 1.96 s. For the same molecule, the Kb in data set [3] stood at 7.1 nM. The “Dose (reversal of formalin induced nociception)” value in the data set with Male Wister rats [4] is listed as “≦10 mg/kg, p.o”.

Take `Cl.Cl.Clc1cncc(OCC2CC3CC3N2)c1` (stereo not shown) [Example 7, 3-(5-Chloropyridin-3-yloxymethyl)-2-azabicyclo[3.1.0]hexane dihydrochloride]: in data set [1] (iv, I.V, 5 mg/kg), the AUC(0-t) turned out to be 2390 ± 196 ng·h/mL, the concentration peaked (Cmax) at 2340 ± 388 ng/mL, the Tmax was determined as 4.8 min and the half-life was 51.6 ± 1.8 min. For the same molecule, the bioavailability in data set [1] (po, P.O 5 mg/kg vs I.V 5 mg/kg) was 50 ± 13%. For the same molecule, in data set [1] (po, P.O, 5 mg/kg), the AUC(0-t) stood at 1190 ± 201 ng·h/mL, the Cmax came to 949 ± 200 ng/mL, the Tmax was 15 min and the half-life was 64.2 ± 2.4 min. In addition, in the data set on Male Wister rats [2] (1 mg/kg p.o.), the Inference entry is given as “Active”; the “Exploration time mean ± S.E.M, Familiar object” value turned out to be 6.81 ± 1.49 s; the “Exploration time mean ± S.E.M, Novel object” value turned out to be 16.70 ± 3.19 s. Also, the Kb in data set [3] was determined as 17.8 nM. Further, the “Dose (reversal of formalin induced nociception)” value in the data set with Male Wister rats [4] was “≦30 mg/kg, p.o”.
